Data: ChEMBL document CHEMBL1131689, “Synthesis and evaluation of geldanamycin-estradiol hybrids” (Bioorg Med Chem Lett, 1999)

Tests used:
Assay type in all cases: functional, cell-based
[1] = Inhibition of steady-state expression of HER2 in MCF-7 breast cancer cells; conditions: Homo sapiens, MCF7
Heat shock protein HSP90 = Heat shock protein HSP90 (Homo sapiens, UniProt P07900+P08238); experiment: Inhibition of steady-state expression of Raf-1 in MCF-7 breast cancer cells; conditions: mcf7
[2] = Inhibition of steady-state expression of ER in MCF-7 breast cancer cells; conditions: Homo sapiens, MCF7

| SMILES | IC50 [1] [nM] | IC50 (Heat shock protein HSP90) [nM] | IC50 [2] [nM] |
| --- | --- | --- | --- |
| CO[C@@H]1/C=C\C=C(/C)C(=O)NC2=CC(=O)C(NCC#CC[C@@H]3C[C@H]4[C@@H]5CCc6cc(O)ccc6[C@H]5CC[C@]4(C)[C@H]3O)=C(C[C@H](C)C[C@@H](OC)[C@@H](O)[C@H](C)/C=C(\C)[C@H]1OC(N)=O)C2=O | 100 | 1500 | 220 |
| CO[C@@H]1/C=C\C=C(/C)C(=O)NC2=CC(=O)C(NCCCC[C@@H]3C[C@H]4[C@@H]5CCc6cc(O)ccc6[C@H]5CC[C@]4(C)[C@H]3O)=C(C[C@H](C)C[C@@H](OC)[C@@H](O)[C@H](C)/C=C(\C)[C@H]1OC(N)=O)C2=O | > 2000 | > 2000 | > 2000 |
| CO[C@@H]1/C=C\C=C(/C)C(=O)NC2=CC(=O)C(NCCC[C@@H]3C[C@H]4[C@@H]5CCc6cc(O)ccc6[C@H]5CC[C@]4(C)[C@H]3O)=C(C[C@H](C)C[C@@H](OC)[C@@H](O)[C@H](C)/C=C(\C)[C@H]1OC(N)=O)C2=O | > 2000 | > 2000 | > 2000 |
| CO[C@@H]1/C=C\C=C(/C)C(=O)NC2=CC(=O)C(NC/C=C/C[C@@H]3C[C@H]4[C@@H]5CCc6cc(O)ccc6[C@H]5CC[C@]4(C)[C@H]3O)=C(C[C@H](C)C[C@@H](OC)[C@@H](O)[C@H](C)/C=C(\C)[C@H]1OC(N)=O)C2=O | 100 | 1500 | 80 |
